Here are results for 14 compounds from patent US8258151B2, “3-aminoimidazo [1,2-A] pyridine derivatives as SGLT inhibitors” (Merck Patent GmbH, priority 2006, dated 2012).

Broadly, the IC50 is the point on the concentration scale where inhibition reaches its midpoint. A high value points to lower potency.

Molecules are shown by their SMILES.

In one experiment the target is T1, SGLT1 (Homo sapiens, UniProt P13866).
T1 construct: expressed in transfected cells
T1 sequence (P13866 1-664): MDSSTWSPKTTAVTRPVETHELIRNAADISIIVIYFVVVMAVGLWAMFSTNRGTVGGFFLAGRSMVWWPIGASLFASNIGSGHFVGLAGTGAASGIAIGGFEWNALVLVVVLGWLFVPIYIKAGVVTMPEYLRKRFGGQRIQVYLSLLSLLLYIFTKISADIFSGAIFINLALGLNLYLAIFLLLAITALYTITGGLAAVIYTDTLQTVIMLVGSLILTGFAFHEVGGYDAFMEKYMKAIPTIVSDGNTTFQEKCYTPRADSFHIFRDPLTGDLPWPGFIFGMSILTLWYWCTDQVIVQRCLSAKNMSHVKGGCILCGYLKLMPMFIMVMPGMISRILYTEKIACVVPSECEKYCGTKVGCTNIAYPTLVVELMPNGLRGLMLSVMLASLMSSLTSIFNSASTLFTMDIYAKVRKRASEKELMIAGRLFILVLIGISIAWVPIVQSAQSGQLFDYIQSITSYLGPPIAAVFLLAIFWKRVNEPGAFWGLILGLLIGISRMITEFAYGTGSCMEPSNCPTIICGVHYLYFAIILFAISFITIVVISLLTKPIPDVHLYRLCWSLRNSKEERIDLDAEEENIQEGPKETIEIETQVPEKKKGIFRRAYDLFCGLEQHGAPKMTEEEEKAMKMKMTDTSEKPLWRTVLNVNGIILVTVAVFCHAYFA
The experiment in a line: SGLT1 activity measurement: 14C-AMG uptake in BHK cells transfected with SGLT1. It is filed as cell-based. The note with it: AMG 50 μM, 37° C., 90 min. From the text:
(§1) The compounds can be tested on their SGLT inhibition properties by means of BHK cells expressing SGLT1 and SGLT2. The production of the cells and the testing can be carried out as described below.
To construct the SGLT1 expression vector (KL225), the SLC5A1 gene (homologous to NM_000343) was amplified from a cDNA library using standard PCR technology and cloned over NheI/XhoI sites into pcDNA3.1 expression vector (Invitrogen) containing neomycin as a selection marker. In this vector, transcription uses the enhancer/promoter of human cytomegalovirus.
The final vector KL225 together with an additional vector containing a dihydrofolate reductase gene as a selection marker was introduced into cells. Transfection into BHK21 cells (ATCC CCL-10), cultivated in DMEM medium (GIBCO/BRL), supplemented with 10% foetal calf serum (FCS) and 20 mM glutamine, was carried out using calcium phosphate transfections according to Graham, F. L. and van der Ebb, A. J. (1973), Virology 52: 456 with 5-20 μg of uncut plasmids for 10^7 cells. Stable transfectants were selected in medium containing 1 mg/ml of G418 (GIBCO/BRL) and 20-5000 nM methotrexate as final concentration, where only cells which expressed the neomycin gene and overexpressed the dhfr gene were able to grow. After growth for 2-3 weeks, the cells were cloned (0.5 cells/well) and the clones were investigated for SGLT expression in the radioactive uptake assay. […]
(§2) A 96-well cell-based assay was developed and adapted to HTS requirements:
(§3) BHK cells (transfected with SGLT1 or SGLT2) were seeded into 96-well microtitre plates (Cultureplates, Perkin Elmer). After at least 24 h, medium was removed and the cell layer was washed with assay buffer (140 mM NaCl, 2 mM KCl, 1 mM CaCl2, 1 mM MgCl2, 10 mM HEPES, 5 mM Tris, adjusted with 1 M KOH to pH 7.4). After addition of 40 μl of assay buffer, 50 μl of AMG (50 μM for SGLT1 and 2 mM for SGLT2) in the presence or absence of compounds, the cells were incubated in a total volume of 100 μl at 37° C. for 90 min. Supernatant was removed by suction and discarded. The cells were washed and lysed by addition of 50 μl water. After 10 minutes at room temperature 200 μl Microscint 40 (Perkin Elmer) were added. The radioactivity was counted in a Topcount microplate scintillation counter (Perkin Elmer). The non-specific uptake was determined in sodium-free assay buffer (266 mM sucrose, 2 mM KCl, 1 mM CaCl2, 1 mM MgCl2, 10 mM HEPES, 5 mM Tris, adjusted with 1 M KOH to pH 7.4).

A further experiment concerns the target T2, SGLT2 (Homo sapiens, UniProt P31639).
T2 construct: expressed in transfected cells
T2 sequence (P31639 1-672): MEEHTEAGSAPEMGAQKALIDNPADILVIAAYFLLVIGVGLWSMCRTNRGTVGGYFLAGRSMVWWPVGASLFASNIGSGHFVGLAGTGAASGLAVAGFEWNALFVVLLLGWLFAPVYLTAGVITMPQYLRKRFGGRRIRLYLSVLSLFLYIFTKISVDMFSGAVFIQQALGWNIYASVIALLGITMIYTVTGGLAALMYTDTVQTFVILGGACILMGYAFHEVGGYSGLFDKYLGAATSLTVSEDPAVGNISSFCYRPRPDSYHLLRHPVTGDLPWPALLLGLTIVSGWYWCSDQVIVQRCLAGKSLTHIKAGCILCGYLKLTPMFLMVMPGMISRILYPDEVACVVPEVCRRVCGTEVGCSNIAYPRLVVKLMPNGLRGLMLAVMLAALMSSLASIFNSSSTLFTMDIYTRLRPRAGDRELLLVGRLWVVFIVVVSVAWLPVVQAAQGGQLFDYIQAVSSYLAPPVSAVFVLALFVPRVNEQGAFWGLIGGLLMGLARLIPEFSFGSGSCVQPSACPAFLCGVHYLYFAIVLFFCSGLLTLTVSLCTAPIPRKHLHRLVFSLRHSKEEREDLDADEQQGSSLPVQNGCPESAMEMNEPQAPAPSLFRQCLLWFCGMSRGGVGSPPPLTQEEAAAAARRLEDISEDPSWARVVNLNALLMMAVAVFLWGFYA
The experiment in a line: SGLT2 activity measurement: 14C-AMG uptake in BHK cells transfected with SGLT2. The following applies: AMG 2 mM, 37° C., 90 min. It is filed as cell-based.
Source text: as §1
To construct the SGLT2 expression vector (KL224), the SLC5A2 gene (homologous to NM_003041) was amplified from a cDNA library using standard PCR technology and cloned over NheI/XhoI sites into PCI-neo expression vector (Promega) containing neomycin as a selection marker. In this vector, transcription used the enhancer/promoter of human cytomegalovirus and the SV40 polyadenylation signal.
The final vector KL224 together with an additional vector containing a dihydrofolate reductase gene as a selection marker was introduced into cells. Transfection into BHK21 cells (ATCC CCL-10), cultivated in DMEM medium (GIBCO/BRL), supplemented with 10% foetal calf serum (FCS) and 20 mM glutamine, was carried out using calcium phosphate transfections according to Graham, F. L. and van der Ebb, A. J. (1973), Virology 52: 456 with 5-20 μg of uncut plasmids for 10^7 cells. Stable transfectants were selected in medium containing 1 mg/ml of G418 (GIBCO/BRL) and 20-5000 nM methotrexate as final concentration, where only cells which expressed the neomycin gene and overexpressed the dhfr gene were able to grow. After growth for 2-3 weeks, the cells were cloned (0.5 cells/well) and the clones were investigated for SGLT expression in the radioactive uptake assay.
Principally, uptake of ^14C-α-methyl-D-glucopyranoside (AMG) in, for example, Xenopus oocytes injected with the corresponding cRNA has been described (for example Wen-Sen Lee et al. (1994), J. Biol. Chem. 269, 12032-12039; Guofeng You et al. (1995), J. Biol. Chem. 270, 29365-29371).
as §2, §3

For `Cc1cccc(C)c1Nc1c(-c2c(O)cccc2OCC(N)=O)nc2ccc(F)cn12` [Compound A175, 2-[2-(Aminocarbonylmethoxy)-6-hydroxyphenyl]-3-(2,6-dimethylphenylamino)-6-fluoroimidazo-[1,2-a]pyridine], the IC50 is above 10000 nM at SGLT1 and 10 to 1000 nM against SGLT2.

`Cc1cccc(C)c1Nc1c(-c2c(O)cccc2OCC(N)=O)nc2ccccn12` [Compound A176, 2-[2-(Aminocarbonylmethoxy)-6-hydroxyphenyl]-3-(2,6-dimethylphenylamino)imidazo[1,2-a]-pyridine]: the 50% inhibitory concentration (IC50) was above 10000 nM at SGLT1 and 1000 to 10000 nM on SGLT2.

Consider `Cc1cccc(C)c1Nc1c(-c2c(C)cc(OC3CCCCO3)cc2OCC(N)=O)nc2ccc(F)cn12` (stereo not shown) [Compound A177, 2-[2-(Aminocarbonylmethoxy)-4-(tetra-hydropyran-2-yloxy)-6-methylphenyl]-3-(2,6-dimethylphenylamino)-6-fluoroimidazo[1,2-a]-pyridine], for which the figures for the concentration for half-maximal inhibition (IC50) on SGLT1 and on SGLT2 were above 10000 nM and 10 to 1000 nM, respectively.

On to `Cc1cccc(C)c1Nc1c(-c2c(C)cc(OCC(N)=O)cc2OCC(N)=O)nc2ccc(F)cn12` [Compound A178, 2-[2-(Aminocarbonylmethoxy)-4-(amino-carbonylmethoxy)-6-methylphenyl]-3-(2,6-dimethylphenylamino)-6-fluoroimidazo[1,2-a]-pyridine], for which the results for the IC50 against SGLT1 and at SGLT2 were above 10000 nM and 10 to 1000 nM, respectively.

As for `Cc1cccc(C)c1Nc1c(-c2ccc([N+](=O)[O-])cc2OCC(N)=O)nc2ccccn12` [Compound A179, 2-[2-(Aminocarbonylmethoxy)-4-nitrophenyl]-3-(2,6-dimethylphenylamino)imidazo[1,2-a]pyridine], the IC50 against SGLT1 is above 10000 nM; at SGLT2 it was 10 to 1000 nM.

For `Cc1cccc(C)c1Nc1c(-c2c(OCC(N)=O)ccc3ccccc23)nc2ccc(F)cn12` [Compound A180, 2-{1-[3-(2,6-Dimethylphenylamino)-6-fluoro-imidazo[1,2-a]pyridin-2-yl]naphthalen-2-yloxy}-acetamide], the values for the concentration for half-maximal inhibition (IC50) against SGLT1 and at SGLT2 were 1000 to 10000 nM and 10 to 1000 nM, respectively.

Consider `Cc1cccc(C)c1Nc1c(-c2c(OCC(N)=O)ccc3ccccc23)nc2ccccn12` [Compound A181, 2-{1-[3-(2,6-Dimethylphenylamino)imidazo-[1,2-a]pyridin-2-yl]naphthalen-2-yloxy}acetamide], for which the IC50 against SGLT1 was 1000 to 10000 nM; against SGLT2, 10 to 1000 nM.

As for `CCc1cc(OC2CCCCO2)cc(OCC(N)=O)c1-c1nc2ccc(F)cn2c1Nc1c(C)cccc1C` (stereo not shown) [Compound A182, 2-[2-(Aminocarbonylmethoxy)-4-(tetra-hydropyran-2-yloxy)-6-ethylphenyl]-3-(2,6-dimethylphenylamino)-6-fluoroimidazo[1,2-a]-pyridine], the IC50 against SGLT1 was above 10000 nM; at SGLT2 it was 10 to 1000 nM.

On to `COC(=O)Cc1ccc(OCC(N)=O)c(-c2nc3ccccn3c2Nc2c(C)cccc2C)c1` [Compound A183, 2-[2-(Aminocarbonylmethoxy)-5-(methoxycarbonylmethyl)phenyl]-3-(2,6-dimethylphenylamino)imidazo[1,2-a]pyridine], for which the IC50 against SGLT1 was above 10000 nM; against SGLT2, 1000 to 10000 nM.

Regarding `COCCOc1cc(C)c(-c2nc3ccc(F)cn3c2Nc2c(C)cccc2C)c(OCC(N)=O)c1` [Compound A184, 2-[2-(Aminocarbonylmethoxy)-4-(2-methoxy-ethoxy)-6-methylphenyl]-3-(2,6-dimethylphenyl-amino)-6-fluoroimidazo[1,2-a]pyridine], the values for the IC50 against SGLT1 and against SGLT2 were above 10000 nM and 10 to 1000 nM, respectively.

In the case of `CCc1cc(OC)cc(OCC(N)=O)c1-c1nc2ccc(F)cn2c1Nc1c(C)cccc1C` [Compound A185, 2-[2-(Aminocarbonylmethoxy)-4-methoxy-6-ethylphenyl]-3-(2,6-dimethylphenylamino)-6-fluoroimidazo[1,2-a]pyridine], the IC50 against SGLT1 is 1000 to 10000 nM; against SGLT2, 10 to 1000 nM.

In the case of `Cc1cccc(C)c1Nc1c(-c2c(C)cc(OCCO)cc2OCC(N)=O)nc2ccc(F)cn12` [Compound A186, 2-[2-(Aminocarbonylmethoxy)-4-(2-hydroxy-ethoxy)-6-methylphenyl]-3-(2,6-dimethylphenyl-amino)-6-fluoroimidazo[1,2-a]pyridine], the IC50 on SGLT1 was above 10000 nM; at SGLT2 it was 10 to 1000 nM.

In the case of `CCc1cc(OCCOC)cc(OCC(N)=O)c1-c1nc2ccc(F)cn2c1Nc1c(C)cccc1C` [Compound A187, 2-[2-(Aminocarbonylmethoxy)-4-(2-methoxy-ethoxy)-6-ethylphenyl]-3-(2,6-dimethylphenyl-amino)-6-fluoroimidazo[1,2-a]pyridine], the figures for the half-maximal inhibitory concentration (IC50) at SGLT1 and at SGLT2 were above 10000 nM and 10 to 1000 nM, respectively.

`COc1ccc(-c2nc3ccc(F)cn3c2Nc2c(C)cccc2C)c(OCC(N)=O)c1OC` [Compound A188, 2-[2-(Aminocarbonylmethoxy)-3,4-dimethoxy-phenyl]-3-(2,6-dimethylphenylamino)-6-fluoro-imidazo[1,2-a]pyridine]: the IC50 on SGLT1 is above 10000 nM; at SGLT2, 1000 to 10000 nM.
